Results: ChEMBL document CHEMBL3351447, “Design, synthesis and anticancer evaluation of tetrahydro-β-carboline-hydantoin hybrids” (Bioorg Med Chem Lett, 2014)
Activity calls are given as the source filed them. The calls are words filed in the database; no cut-off is given here.

Assays:
[1] = Cytotoxicity against human ME180 cells after 72 hrs by MTT assay; format: functional, cell-based; conditions: ME-180, 72 h
[2] = Cytotoxicity against human PC3 cells after 72 hrs by MTT assay; format: functional, cell-based; conditions: PC-3, 72 h
A549 = assay: Cytotoxicity against human A549 cells after 72 hrs by MTT assay; format: functional, cell-based; conditions: A549, 72 h
MCF7 = assay: Cytotoxicity against human MCF7 cells after 72 hrs by MTT assay; format: functional, cell-based; conditions: MCF7, 72 h
HeLa = assay: Cytotoxicity against human HeLa cells after 72 hrs by MTT assay; format: functional, cell-based
[3] = Selectivity index, ratio of IC50 for human RWPE cells to IC50 for human PC3 cells; format: functional
PC-3 [4] = assay: Induction of apoptosis in human PC3 cells assessed as induction of apoptotic body formation at 3 and 6 uM after 48 hrs by orange/ethidium bromide staining based fluorescence microscopy; format: functional, cell-based
PC-3 [5] = assay: Induction of cell cycle arrest in human PC3 cells assessed as accumulation at G2/M phase at 3 and 6 uM after 48 hrs by propidium iodide staining based flow cytometry; format: functional
PC-3 [6] = assay: Induction of apoptosis in human PC3 cells assessed as early apoptotic cells at 6 uM after 48 hrs by orange/ethidium bromide staining based fluorescence microscopy; format: functional
PC-3 [7] = assay: Induction of apoptosis in human PC3 cells assessed as induction of membrane blebbing at 3 and 6 uM after 48 hrs by orange/ethidium bromide staining based fluorescence microscopy; format: functional, cell-based
PC-3 [8] = assay: Induction of cell cycle arrest in human PC3 cells assessed as accumulation at S phase at 6 uM after 48 hrs by propidium iodide staining based flow cytometry (reference value: 15.8%); format: functional
PC-3 [9] = assay: Induction of cell cycle arrest in human PC3 cells assessed as accumulation at G2/M phase at 3 uM after 48 hrs by propidium iodide staining based flow cytometry (reference value: 20.9%); format: functional
PC-3 [10] = assay: Induction of apoptosis in human PC3 cells assessed as induction of cell shrinkage at 3 and 6 uM after 48 hrs by orange/ethidium bromide staining based fluorescence microscopy; format: functional
PC-3 [11] = assay: Induction of apoptosis in human PC3 cells assessed as early apoptotic cells at 1 uM after 48 hrs by orange/ethidium bromide staining based fluorescence microscopy; format: functional
PC-3 [12] = assay: Induction of apoptosis in human PC3 cells assessed as induction of chromatin condensation with destructive fragmentation of the nucleus at 3 and 6 uM after 48 hrs by orange/ethidium bromide staining based fluorescence microscopy; format: functional, cell-based
PC-3 [13] = assay: Induction of cell cycle arrest in human PC3 cells assessed as accumulation at G2/M phase at 6 uM after 48 hrs by propidium iodide staining based flow cytometry (reference value: 20.9%); format: functional
PC-3 [14] = assay: Induction of cell cycle arrest in human PC3 cells assessed as accumulation at S phase at 3 uM after 48 hrs by propidium iodide staining based flow cytometry (reference value: 15.8%); format: functional
PC-3 [15] = assay: Induction of cell cycle arrest in human PC3 cells assessed as accumulation at G0/G1 phase at 3 uM after 48 hrs by propidium iodide staining based flow cytometry (reference value: 55%); format: functional
PC-3 [16] = assay: Induction of cell cycle arrest in human PC3 cells assessed as accumulation at G0/G1 phase at 6 uM after 48 hrs by propidium iodide staining based flow cytometry (reference value: 55%); format: functional
PC-3 [17] = assay: Induction of apoptosis in human PC3 cells assessed as early apoptotic cells at 3 uM after 48 hrs by orange/ethidium bromide staining based fluorescence microscopy; format: functional

| SMILES | IC50 [1] [µM] | IC50 [2] [µM] | IC50 (A549) [µM] | IC50 (MCF7) [µM] | IC50 (HeLa) [µM] | also measured |
| --- | --- | --- | --- | --- | --- | --- |
| O=C1[C@H]2Cc3c([nH]c4ccccc34)[C@@H](c3cccc(O)c3)N2C(=O)N1CCCl | 48 | 22.3 | > 100 | > 100 | 30.3 |  |
| COc1cc([C@@H]2c3[nH]c4ccccc4c3C[C@H]3C(=O)N(Cc4ccc(Br)cc4)C(=O)N23)ccc1O | > 100 | > 100 | 77.5 | > 100 | 82.9 |  |
| COc1cc([C@@H]2c3[nH]c4ccccc4c3C[C@H]3C(=O)N(c4cccc(C(F)(F)F)c4)C(=O)N23)ccc1O | 27.4 | 9.6 | > 100 | 48 | 11.4 | Ratio IC50 [3]: 1.6 |
| O=C1[C@@H]2Cc3c([nH]c4ccccc34)[C@@H](c3cccc(O)c3)N2C(=O)N1Cc1ccc(Br)cc1 | 88.6 | 8.9 | 34.8 | 24.9 | 24.3 | Ratio IC50 [3]: 1.9 |
| O=C1[C@@H]2Cc3c([nH]c4ccccc34)[C@@H](c3cccc(O)c3)N2C(=O)N1c1cccc(C(F)(F)F)c1 | > 100 | 37.1 | > 100 | 70.9 | 31.9 |  |
| COc1cc([C@@H]2c3[nH]c4ccccc4c3C[C@@H]3C(=O)N(c4cccc(C(F)(F)F)c4)C(=O)N23)ccc1O | 30.7 | 11.7 | 43.9 | 35.9 | 15.6 |  |
| O=C1[C@@H]2Cc3c([nH]c4ccccc34)[C@@H](c3cccc(O)c3)N2C(=O)N1CCCl | 59.5 | 49 | 68 | 48.2 | 60.3 |  |
| COc1cc([C@@H]2c3[nH]c4ccccc4c3C[C@H]3C(=O)N(c4ccc(Cl)cc4)C(=O)N23)ccc1O | > 100 | 13.4 | > 100 | 42.2 | 30.3 |  |
| O=C1[C@H]2Cc3c([nH]c4ccccc34)[C@@H](c3cccc(O)c3)N2C(=O)N1c1ccc(Cl)cc1 | 17 | 10.3 | 34.8 | 40.5 | 12.1 |  |
| COc1cccc2c1C(=O)c1c(O)c3c(c(O)c1C2=O)C[C@@](O)(C(=O)CO)C[C@@H]3O[C@H]1C[C@H](N)[C@H](O)[C@H](C)O1 [DOXORUBICIN] | 0.39 |  |  |  |  |  |
| COc1cc([C@@H]2c3[nH]c4ccccc4c3C[C@@H]3C(=O)N(c4ccc(Cl)cc4)C(=O)N23)ccc1O | > 100 | 13.4 | > 100 | 19.7 | 30.6 |  |
| O=C1[C@@H]2Cc3c([nH]c4ccccc34)[C@@H](c3cccc(O)c3)N2C(=O)N1c1ccc(Cl)cc1 | 24.6 | 6.08 | 16 | 26 | 6.5 | Activity (PC-3 [4]): Active; fold change (FC) (PC-3 [5]): 1.63; Activity (PC-3 [6]): 42.5%; Activity (PC-3 [7]): Active; Ratio IC50 [3]: 5; Activity (PC-3 [8]): 11.8%; Activity (PC-3 [9]): 31.5%; Activity (PC-3 [10]): Active; Activity (PC-3 [11]): 8%; Activity (PC-3 [12]): Active; Activity (PC-3 [13]): 34.1%; Activity (PC-3 [14]): 15.8%; Activity (PC-3 [15]): 43.9%; Activity (PC-3 [16]): 45.5%; Activity (PC-3 [17]): 25% |
| O=C1[C@H]2Cc3c([nH]c4ccccc34)[C@@H](c3cccc(O)c3)N2C(=O)N1c1cccc(C(F)(F)F)c1 | 22.6 | 11.2 | 40 | 42.6 | 13.6 |  |
| COc1cc([C@@H]2c3[nH]c4ccccc4c3C[C@@H]3C(=O)N(Cc4ccc(Br)cc4)C(=O)N23)ccc1O | > 100 | 12 | > 100 | 19.9 | 84.3 |  |
| O=C1[C@H]2Cc3c([nH]c4ccccc34)[C@@H](c3cccc(O)c3)N2C(=O)N1Cc1ccc(Br)cc1 | 17.5 | 9.13 | 35.4 | 27.9 | 11.2 | Ratio IC50 [3]: 1.7 |
| COc1cc([C@@H]2c3[nH]c4ccccc4c3C[C@H]3C(=O)N(CCCl)C(=O)N23)ccc1O | > 100 | 35.5 | > 100 | 50.7 | 50 |  |
| COc1cc([C@@H]2c3cc4c(cc3[C@@H](O[C@@H]3O[C@@H]5CO[C@@H](C)O[C@H]5[C@H](O)[C@H]3O)[C@H]3COC(=O)[C@H]23)OCO4)cc(OC)c1O [ETOPOSIDE] | 8.9 | 14.4 | 50 |  | 4.71 | Ratio IC50 [3]: 2 |
| COc1cc([C@@H]2c3[nH]c4ccccc4c3C[C@@H]3C(=O)N(CCCl)C(=O)N23)ccc1O | > 100 | 29.1 | > 100 | > 100 | 33.1 |  |
